Measurements reported in patent US20220241229A1, “Methods and Compositions for Altering Senescence Associated Secretory Phenotype” (BUCK INSTITUTE FOR RESEARCH ON AGING, priority 2019, published 2022).
Entries after “also recorded” stand apart in the source; their conditions may differ. Like-named read-outs stand apart in the source and are kept apart here.

Legend:
C57BL6/J mice [1] = settings: for Incidence and severity of aging phenotypes / morbidity (total frailty score): female and male, Cohort-1, 2% w/w diet from 18 months; for Age-related changes in female coat color / hair discoloration: female mice; for Severity of individual frailty phenotypes: grimace, poor coat condition, gait disorder
Description: For the subjective properties of the assessments, all measurements were completely blinded. These assessments indicate age-associated deterioration of health and include evaluation of the animal musculoskeletal system, the vestibulocochlear/auditory systems, the ocular and nasal systems, the digestive system, the urogenital system, the respiratory system, signs of discomfort, body weight and body surface temperature. 0 is assigned if no sign of frailty is observed and the animal is healthy for that phenotype. A moderate phenotype and a severe phenotype is scored 0.5 and 1 respectively. Loss of temperature and weight were scored using standard deviation for the study (Table 2). All the phenotypes were scored as described before by Whitehead, J. C., et al., except for temperature and weight. Temperature and weights scoring: Briefly, for weight and temperature, the new scaling scores were used; Average and standard deviations (STDEV) were calculated sex specifically using our own baseline data sets (data collected before the start of the treatment mice at 18th month age). A decrease in temperature or weight (FIG. 3B, and FIG. 3D) within one STDEV is scored as a (0), a decrease bigger than one STDEV but smaller than 2 STDEV will be scored as a (0.5) and any decrease more than 2 STDEV is scored as a (1).
(§1) Python Software was used to extract all the health span data and create files compatible with R software for analysis. Data were analyzed using R, GraphPad Prism 7 and OASIS 2 software. Log-rank (Mantel-Cox) tests were used to analyze Kaplan-Meier curves, and a fisher's exact test was performed for maximum lifespan analysis (at 90% survival). […] Two-way analysis of variance (ANOVA) with Bonferroni post hoc correction was used for analysis between morbidity curves. The area under curve (AUC) of […] graphs were measured baselining at 18 months of age. The changes in AUC were used to calculate the percent compression of morbidity.
In order to assess healthspan, measurements were applied that are based on a clinically relevant frailty index. The frailty index (FI) consists of 31 phenotypes that are indicators of age-associated health deterioration, with each phenotype scored on a 0, 0.5 or 1 scale, based on its severity. Body weight and surface temperature were collected and converted to the same scoring scales (Table 2). All scorings were conducted in a blinded manner.
The 31-metrics share many characteristics of the human frailty indices and has been reported to progress similarly with aging in mice and humans. Measurements were repeated approximately every eight weeks, providing us with eight and seven sets of data respectively for male and female groups. To establish a baseline clinical assessment, a dataset was collected right before the start of the treatment at 18th months (FIG. 4A-FIG. 4D).
Since the age for onset of age-related phenotypes can be quite heterogeneous in mammals, frailty datasets were plotted not only as a function of chronological time, but also in proportion to the lifespan of each mouse by binning scores within ten percentile (e.g. scores collected between 60% and 70% of the animals' lifespans were binned and plotted at 65%), (FIG. 9A-FIG. 9B). This further aligns assessments with respect to the biologic age of the animal.

IMR-90 fibroblasts = test: Senescence formation in irradiated IMR-90 fibroblasts (SA-β-gal, EdU); type: cell-based; settings: 10 Gy ionizing radiation; 1 mM for 10 days
Method: IMR-90 fetal lung fibroblasts were obtained from ATCC and were cultured at 37° C. in 3% O2 and 5% CO2. Dulbecco's modified Eagle's media (DMEM) supplemented with 10% fetal bovine serum and streptomycin/penicillin were used. Media was changed every 2 days during the experiment. For damage-induced senescence, cells were irradiated with doses of either 0 or 10 Gy of ionizing radiation (IR). Cells were concurrently treated with PBS (control) or 1 mM AKG for 10 days, changing media every 2 days. All assays were performed 10 days post irradiation.
Cells were stained for the senescence-associated 3-gal (SA-3-gal) marker as described. Non-senescent cells (having undergone fewer than 35 population doublings) were made quiescent by washing with PBS and incubating in DMEM containing 0.2% serum for 4 day. Cultures that had >80% SA-3-gal positive cells and ≤4% EdU positive cells were considered senescent.

[2] = Body weight and food consumption; type: in vivo, mice
Description: (§2) The principle endpoint of health span and lifespan study was natural death or mice found dead at daily inspection or age at euthanasia (for mice deemed unlikely to survive for next 48 hr and are in enormous discomfort). The criteria for euthanasia were based on an independent assessment by a veterinarian, according to AAALAC guidelines and only where the condition of the animal was considered. Severe lethargy, rapid weight loss (over two weeks>20%), severe distended abdomen and body condition score with signs of pain (grimace), inability to move despite the stimuli, severe ulcer or bleeding tumor, sever temperature loss with abnormal breathing rate. Animal found dead or euthanized was necropsied for pathology score. No invasive measurements were performed on this population, n=180 animals (two cohorts of 90 animals). A sacrificed group were purchased at 14 months of age, baselined and grouped the following week. […] Animals were sacrificed and tissues were collected after 3 months of treatment. Food intake and body weight were measured on a biweekly and bimonthly basis for the duration of the study.
Metabolism was measured applying indirect calorimetry. Promethion metabolic cage system-Sable Systems International was used.

[3] = system: senescence-associated secretory phenotype (SASP) genes; test: qRT-PCR of SASP genes in irradiated IMR-90 fibroblasts; type: cell-based; settings: 10 Gy ionizing radiation; 1 mM for 10 days
Method: For damage-induced senescence, cells were irradiated with doses of either 0 or 10 Gy of ionizing radiation (IR). Cells were concurrently treated with PBS (control) or 1 mM AKG for 10 days, changing media every 2 days. All assays were performed 10 days post irradiation.
RNA quality and quantity were assessed using NanoDrop™ 1000 spectrophotometer measures (Thermo Scientific). Total cDNAs were synthesized from 500 ng of RNA using random primers and iScript RT reagents following the manufacturer's protocol Superscript II (Invitrogen, Carlsbad, USA). Gene expression was measured from cDNA using the Roche Universal Probe Library system (Indianapolis, Ind., USA). All values were normalized to beta-actin.

[4] = system: inflammatory cytokines and chemokines; test: Inflammatory cytokines and chemokines in serum (multiplex bead array); type: in vivo, mice; settings: for Levels of 30 inflammatory cytokines and chemokines: aged female mice (29 month old) vs. aged control and young
Method: The samples were measured for soluble cytokines and chemokines in serum using multiplex bead array technology (MD31).

C57BL6/J mice [5] = settings: Cohort-1, 2% w/w AKG diet from 18 months of age
Description: as §2, §1

C57BL6/J mice [6] = settings: treated group vs. control
Method: Metabolism was measured applying indirect calorimetry. Promethion metabolic cage system-Sable Systems International was used. The system is equipped with GA-3 small mammal gas analyzers for measurements of O2 (consumption) and CO2 (production). Energy expenditure, food intake, water consumption, body weight, physical activity and volunteer exercise were simultaneously recorded over 4 consecutive days (96 hours). Mice were housed individually in metabolic cages and accustomed to their environment a day before the start of recording. Data were analyzed using Sable System Expedata-P Data Analysis Software. Subsequently, CalR software, a free web tool was used for analysis of experiments using indirect calorimetry, to analyze the raw data, generate some plots and run statistical analysis.

[7] = aged mice (29 months old) vs. young and aged control

In the case of O=C(O)CCC(=O)C(=O)O [AKG, 2-oxopentanedioic acid], the “Compression of morbidity (proportion of life frail)” value (C57BL6/J mice [1]; both sexes, total frailty scores vs. percentage of lifespan) is reported as “compresses the morbidity risk into fewer days of life; also recorded: decreases the proportion of life in which the animal is frail”, the “Incidence and severity of aging phenotypes / morbidity (total frailty score)” value (C57BL6/J mice [1]) is reported as “extends healthspan and alleviates age-associated frailty” and the “Age-related changes in female coat color / hair discoloration” value (C57BL6/J mice [1]) is reported as “prevents age-associated hair discoloration”. For the same compound, the “Senescence formation / senescence growth arrest” value (IMR-90 fibroblasts) was “without preventing the senescence growth arrest”, the “Body weight preservation (age-related weight loss)” value ([2]; male mice, second cohort, P value<0.001) was “preserves body weight; also recorded: better body weight preservation” and the Food consumption ([2]; measured for 3 consecutive days at 19, 23 and 28 months, AKG fed vs. control) was “no significance change”. For the same compound, the “Range of inflammatory cytokines (proinflammatory SASP)” value [3] was “lowers the proinflammatory SASP”, the “Levels of 30 inflammatory cytokines and chemokines” value [4] was “general trend of reduction” and the “Level of IL-3” value [4, 7] was “do not show an increase”. The “Level of IL-7” value [4, 7] was “do not show an increase”, the “Level of MIP-1β” value [4, 7] was “do not show an increase” and the “Level of TNFα” value [4, 7] was “do not show an increase”. The “Age (days) at 100%” value (C57BL6/J mice [5]; female) was 1116 days, the “Age (days) at 100%” value (C57BL6/J mice [5]; male & female) was 1173 days and the “Age (days) at 100%” value (C57BL6/J mice [5]; male) was 1173 days.

With O=C([O-])CCC(=O)C(=O)[O-].[Ca+2] [CaAKG, Calcium alpha-ketoglutarate] the “Incidence and severity of aging phenotypes / morbidity (total frailty score)” value (C57BL6/J mice [1]) was “decreases incidence and severity of different aging phenotypes and postpones morbidity”, the “Age-related changes in female coat color / hair discoloration” value (C57BL6/J mice [1]) was “protection from age-related changes in female coat color was particularly prominent” and the “Total frailty score, health improvement vs. control” value (C57BL6/J mice [1]; female, P<0.001, P<0.05) was “significant improvements after 9 months of treatment and again at 11 months post treatment”. For the same compound, the Gait (C57BL6/J mice [1]; females and males close to median life) was “Gait improvement”, the “Severity of individual frailty phenotypes” value (C57BL6/J mice [1]; females: piloerection, alopecia, loss of fur color, grip strength loss, rectal prolapse, body weight loss) was “significantly decreased” and the “Total frailty score, health improvement vs. control” value (C57BL6/J mice [1]; male, persisted until last measurement at 33 months of age, P<0.01, P<0.05) was “significant health improvement after 11 months”. For the same compound, the “Severity of individual frailty phenotypes” value (C57BL6/J mice [1]; males: grip strength loss, vestibular disturbance, loss of menace reflex, hearing loss, eye discharge, poor body condition, tail stiffening, abnormal breathing rate) was “significantly decreased the severity of multiple aging phenotypes”, the “Levels of 30 inflammatory cytokines and chemokines” value [4] was “largely refractory to these changes” and the “Level of IL-3” value [4, 7] was “significant changes”. For the same compound, the “Level of carbon dioxide production” value (C57BL6/J mice [6]) was “significantly lower”, the “Level of energy expenditure” value (C57BL6/J mice [6]) was “significantly lower” and the “Level of oxygen consumption” value (C57BL6/J mice [6]) was “significantly lower”.
